Data on one compound can be found in US20200181212A1 (priority 2014, published 2020).

For orientation: fraction remaining means the share of the starting amount still present when the sample was taken. Higher therefore signals less turnover.

A short description of the series: physchem. The following applies: cells or culture medium.

Compound `CC(C)C[C@@H]1NC(=O)[C@H](CO)NC(=O)[C@@H]2CSSC[C@@H]3NC(=O)[C@H]([C@@H](C)O)NC(=O)[C@H](C)NC(=O)[C@H](CC(=O)O)NC(=O)[C@H](CC(=O)O)NC(=O)[C@H](CSSC[C@H](NC(=O)[C@H](Cc4ccc(O)cc4)NC(=O)[C@@H](N)CCC(N)=O)C(=O)N[C@@H](C(C)C)C(=O)N4CCC[C@H]4C(=O)N[C@@H](C(C)C)C(=O)N[C@@H](CC(=O)O)C(=O)N[C@@H](CCC(N)=O)C(=O)N4CCC[C@H]4C(=O)N2)NC(=O)[C@H](CSSC[C@@H](C(=O)N[C@@H](CCCNC(=N)N)C(=O)N[C@@H](C)C(=O)O)NC(=O)[C@H](Cc2ccc(O)cc2)NC(=O)[C@H](Cc2ccc(O)cc2)NC(=O)[C@H](C(C)C)NC(=O)[C@H]([C@@H](C)O)NC(=O)[C@H](Cc2c[nH]cn2)NC(=O)CNC(=O)[C@H](CC(N)=O)NC(=O)[C@H](CCC(=O)O)NC(=O)[C@H](CC(N)=O)NC(=O)[C@H](CCCNC(=N)N)NC(=O)[C@H](CCC(=O)O)NC(=O)[C@H](CCC(N)=O)NC(=O)[C@H]([C@@H](C)O)NC3=O)NC(=O)[C@@H]2CCCN2C(=O)[C@H](CCC(N)=O)NC(=O)[C@H]([C@@H](C)O)NC(=O)[C@H](CC(N)=O)NC1=O` (single isomer, unassigned) [Peak 1] returned a share remaining at 24 h of 5.6%.
